No end group written: not given here.
Legend:
[1] = system: rats; assay: Bone mineral apposition rate in intact rats after subcutaneous injection of polypeptide, tetracycline labelling; assay type: in vivo, Sprague-Dawley rats; conditions: for Increase of bone apposition rate with respect to the control: non-N-terminus variants (Table Nineteen, FIG. 12); for Bone Apposition Rate, Mean: rats injected with non-N-terminus variants, SEQ ID NO:1 for comparison, lower metaphysis of right femur (Table Nineteen); for Bone stimulatory activity of substituted 10-amino acid polypeptides: rats about 300 grams, 100 nmoles s.c. per animal, N-terminus acetylated, C-terminus amidated, compared with family retaining full charge pattern
Description: Experiments were carried out on three groups of six rats weighing between 295 and 320 g. A 1 mg per ml solution of the modified peptide (SEQ ID NO:3) was prepared in 0.1% acetic acid. A 1 mg per ml solution of the normal peptide (SEQ ID NO:1) was prepared in 0.1% acetic acid. Each rat of a first of the groups had subcutaneously injected into its right thigh 0.1 ml of the modified peptide solution. Similarly, each rat of the second group was injected with 0.1 ml of the normal peptide solution. Each rat of the third group, the control group, was injected with 0.1 ml of 0.1% acetic acid solution. Immediately following these injections, each rat was injected intramuscularly with 24 mg per Kg body weight of tetracycline hydrochloride dissolved in 0.5 ml of water. A second dose of tetracycline hydrochloride was administered 48 hours later. The animals were sacrificed 24 hours after the second dose by CO2 narcosis. The lower metaphysis of the right femur was dissected out and fixed in a 10% aqueous solution of formaldehyde buffered at pH 7.2 by acetate buffer. Bone sections were prepared for measurement as described above.
Sprague-Dawley rats were used as test animals to determine bone mineral apposition rate, as described above. Male rats having weights between 280 and 380 g were subject to subcutaneous injection after one week of acclimatization. Each animal was injected with 200 μl of a 0.1% acetic acid test solution, solutions having been prepared at concentrations to obtain a dosage of about 25 nmol of polypeptide per animal. Each test dose was immediately followed by intramuscular injection of 24 mg per Kg of body weight of tetracycline hydrochloride. A second injection of tetracycline was made 48 hours later.
Bone mineral apposition rates were determined by measurements of the lower metaphysis of the right femur, as described previously. Results obtained in the two sets of experiments are summarized in Tables Seven and Eight and graphically depicted in FIGS. 8 and 9.
Bone mineral apposition rates were again determined by measurement of the lower metaphysis of the right femur. Results obtained are summarized in Table Nineteen and graphically depicted in FIG. 12. […]
In a final set of experiments, a polypeptide having the ninth amino acid, cysteine, replaced by the amino acid tyrosine, SEQ ID NO:43, was synthesized and tested for bone stimulatory activity. Four rats (about 300 grams) were each administered with 100 nmoles of material (in 400 μl 20 mM acetic acid solution) by subcutaneous injection along with tetracycline (5 mg per animal in 400 μl water), as described above. A second dosage of tetracycline was administered 48 hours later and the animals sacrificed 24 hours after that. The lower metaphysis of the right femur was examined to determine the bone mineral apposition rate. For comparison, experiments were performed using a control in which no compound was present in the acetic acid solution.

[2] = Stability of dissolved polypeptides (capillary electrophoresis, RP-HPLC); assay type: physicochemical; conditions: for Stability relative to SEQ ID NOs: 7 or 24: general summary of stability tests
Description: Each of the polypeptides having the sequences identified as SEQ ID NO: 7 and 24 was dissolved in 5 mM acetic acid to a final concentration of 1 mg/ml and incubated at 37° C. The peptide compositions were analyzed weekly by capillary electrophoresis on a P/ACE 6000 system (Beckman) using 50 mM sodium phosphate pH 2.5 as the running buffer on a 57 cm long×75 μm internal diameter capillary. The incubated peptide (20 μl) was diluted with 80 μl of running buffer, placed in a 500 μl vial prior to injection onto the P/ACE using pressure for 20 seconds. Following electrophoresis of the incubated peptide at 30 kV for 15 min a second run was carried out using freshly dissolved peptide as a control.
Each of the polypeptides was dissolved in 20 mM sodium phosphate pH 3.0, 20 mM ammonium acetate pH 4.0, 20 mM ammonium acetate pH 5.0, 20 mM MES pH 6.0, 20 mM sodium phosphate pH 7.0, 20 mM sodium phosphate pH 7.5, 20 mM sodium phosphate pH 8.0, 20 mM ammonium acetate pH 8.5 or 20 mM ammonium acetate pH 9.5 to a final concentration of 1 mg/ml. The peptide was incubated at 37° C. and the peptide assayed weekly by separation on P/ACE as described above. Some samples were separated by RP-HPLC and the isolated peaks subjected to mass spectroscopic analysis.
The protected polypeptide identified as SEQ ID NO:24 was dissolved in 20 mM or 250 mM ammonium acetate pH 4.5 to a final concentration of 1 mg/ml. In some experiments the buffer was supplemented with 20 mM EDTA. The peptide solution was then incubated at −70° C., −20° C., 4° C. or room temperature (22° C.). Samples were assayed weekly by electrophoresis on the P/ACE as described above and/or by RP-HPLC.
The stability of each of the polypeptides having the amino acid sequences identified as SEQ ID NOs: 25, 26 and 27 was tested as described above.

[3] = about 25 nmol per animal s.c., second, separate set (Table Eight)
[4] = about 125 nmoles of polypeptide per Kg of body weight (Table Twenty)
[5] = approximately 500 gm male Sprague-Dawley rats, 300 nmol/kg bodyweight (Table Twenty-Two)
[6] = male Sprague-Dawley rats 280-380 g, about 25 nmol per animal s.c., first set (Table Seven)
[7] = 20 mM buffers pH 3.0 to 9.5, 1 mg/ml, 37° C.

With “Arg Thr Asn Glu His Thr Ala Asp Cys Lys (Ac-RTNEHTADCK-NH2) [SEQ ID NO:9]” the “Bone mineral apposition rate, Mean” value [1, 3] was 2.83 μm/d and the “Mean Bone Apposition Rate” value [1, 4] was 2.11 μm/day.

For “CH3CO-Arg Thr Asn Glu His Thr Ala Glu Cys Lys-NH2 (Ac-RTNEHTAECK-NH2) [SEQ ID NO:25]”, the “Stability relative to SEQ ID NOs: 7 or 24” value [2] was “more stable”, the Stability in solution ([2]; pH 2.5-3.0 for 20 days) was “stable” and the “Mean Bone Apposition Rate” value ([1]; Table Twenty-One, FIG. 14, N=4) was 1.94 μm/day.

For “CH3CO-Arg Thr Gln Glu His Thr Ala Asp Cys Lys-NH2 (Ac-RTQEHTADCK-NH2) [SEQ ID NO:27]”, the Stability in solution ([2]; all pHs tested, 37° C. for 3 days) was “unstable”, the “Stability relative to SEQ ID NOs: 7 or 24” value [2] was “significantly less stable” and the “Mean Bone Apposition Rate” value ([1]; Table Twenty-One, FIG. 14, N=4) was 1.72 μm/day.

In the case of “CH3CO-Arg Thr Gln Glu His Thr Ala Glu Cys Lys-NH2 (Ac-RTQEHTAECK-NH2) [SEQ ID NO:26]”, the “Stability relative to SEQ ID NOs: 7 or 24” value [2] is reported as “more stable”, the Stability in solution ([2]; pH 2.5-3.0, incubated at 37° C.) is reported as “stable” and the “Mean Bone Apposition Rate” value ([1]; Table Twenty-One, FIG. 14, N=4) is reported as 2.88 μm/day. The “Mean Bone Apposition Rate” value [1, 5] was 2.04 μm/day.

With “GIGKRTNEHTADAKIKPNTLHKKAAETLMVLDQNQP [SEQ ID NO:3]” the “Bone mineral apposition rate, Mean” value ([1]; rats 295-320 g, 0.1 ml of 1 mg per ml solution s.c., lower metaphysis of right femur (Table Six)) was 1.35 μm/d.

In the case of GIGKRTNEHTADCK [SEQ ID NO:8], the “Bone mineral apposition rate, Mean” value [1, 3] is reported as 2.09 μm/d.

For GIGKRTNEHTADCKIKPNTL [SEQ ID NO:6], the “Bone mineral apposition rate, Mean” value [1, 6] was 1.37 μm per day.

In the case of GIGKRTNEHTADCKIKPNTLHKKAA [SEQ ID NO:5], the “Bone mineral apposition rate, Mean” value [1, 6] is reported as 1.35 μm per day.

For “GIGKRTNEHTADCKIKPNTLHKKAAETLMV [SEQ ID NO:4]”, the “Bone mineral apposition rate, Mean” value [1, 6] was 1.31 μm per day.

In the case of LHKKAAETLMVLD [SEQ ID NO:13], the “Increase of bone apposition rate with respect to the control” value (shortened to “Increase of bone apposition rate”) [1] is reported as “none”.

For LHKKAAETLMVLDQ [SEQ ID NO:12], the “Increase of bone apposition rate” value [1] was “none”.

For LHKKAAETLMVLDQN [SEQ ID NO:11], the “Increase of bone apposition rate” value [1] was “none”.

In the case of LHKKAAETLMVLDQNQ [SEQ ID NO:10], the “Increase of bone apposition rate” value [1] is reported as “none”.

In the case of RTNEHTADCKI [SEQ ID NO:16], the “Increase of bone apposition rate” value [1] is reported as “none” and the “Bone Apposition Rate, Mean” value [1] is reported as 1.02 μm/day.

For “RTNEHTADCKIKPNTLHKKAAETLMVLDQN [SEQ ID NO:15]”, the “Increase of bone apposition rate” value [1] was “none” and the “Bone Apposition Rate, Mean” value [1] was 0.92 μm/day.

In the case of “SEQ ID NO:24: ten amino acid sequence of SEQ ID NO:9, acetylated at the amino terminus and amidated at the carboxy terminus (Ac-RTNEHTADCK-NH2)”, the “Stability when dissolved in dilute acids” value ([2]; 5 mM acetic acid, 1 mg/ml, 37° C., analyzed weekly by capillary electrophoresis) is reported as “degraded overtime”, the “pH above which the peptide dimerized” value [2, 7] is reported as greater than 6.0 and the “pH at which the peptide was most stable” value [2, 7] is reported as roughly 4.5. The “pH below which the peptide degraded” value [2, 7] was less than 4.0, the “Stability as a powder and when dissolved in pH 4.5 buffer” value ([2]; 20 mM or 250 mM ammonium acetate pH 4.5, 1 mg/ml) was “very stable” and the “Dissolved peptide compared with dry peptide stored at −70° C.” value ([2]; ammonium acetate pH 4.5, 1 mg/ml, incubated at 4° C., −20° C. or −70° C., up to 28 days) was “unchanged”. The “Time after which modification of the peptide was observed (RP-HPLC)” value ([2]; ammonium acetate pH 4.5, 1 mg/ml, room temperature (22° C.)) was 7 days, the “Mean Bone Apposition Rate” value ([1]; Table Twenty-One, FIG. 14, N=4) was 2.04 μm/day and the “Mean Bone Apposition Rate” value [1, 4] was 2.72 μm/day.

In the case of “SEQ ID NO:34: SEQ ID NO:24 sequence with one amino acid having a charged side chain substituted by alanine; acetylated, amidated (Ac-ATNEHTADCK-NH2)”, the “Bone stimulatory activity of substituted 10-amino acid polypeptides” value (from here on “Bone stimulatory activity”) [1] is reported as “lack or to exhibit substantially less bone stimulatory activity”.

For “SEQ ID NO:36: SEQ ID NO:24 sequence with one amino acid having a charged side chain substituted by alanine; acetylated, amidated (Ac-RTNEATADCK-NH2)”, the “Bone stimulatory activity” value [1] was “lack or to exhibit substantially less bone stimulatory activity”.

In the case of “SEQ ID NO:37: SEQ ID NO:24 sequence with one amino acid having a charged side chain substituted by alanine; acetylated, amidated (Ac-RTNEHTAACK-NH2)”, the “Bone stimulatory activity” value [1] is reported as “lack or to exhibit substantially less bone stimulatory activity”.

For “SEQ ID NO:38: SEQ ID NO:24 sequence with one amino acid having a charged side chain substituted by alanine; acetylated, amidated (Ac-RTNEHTADCA-NH2)”, the “Bone stimulatory activity” value [1] was “lack or to exhibit substantially less bone stimulatory activity”.

For “SEQ ID NO:45: third amino acid asparagine replaced by glutamine, eighth aspartic acid by glutaric acid, ninth cysteine by tyrosine (as printed) (Ac-RTQEHTAEYK; not fully specified; also: position 8 stated as glutaric acid replacing Asp, X10 not defined)”, the “Mean Bone Apposition Rate” value [1, 5] was 1.77 μm/day.

With TADCKIKPNTLHKKAAETLMVLD [SEQ ID NO:14] the “Increase of bone apposition rate” value [1] was “none” and the “Bone Apposition Rate, Mean” value [1] was 0.92 μm/day.

Source: patent US6743895B1, “Bone stimulating factor” (Osteopharm Inc., priority 1995, dated 2004)
